Measured values: patent US12162890B2 (Novartis AG, priority 2015, dated 2024)

Target: HEK293 cells with stable expression of the GRIN1 gene and tetracycline-inducible expression of the GRIN2B gene (NMDA receptor, NR2B) (Homo sapiens, UniProt Q13224)
Test: Fluo-8 Ca2+ flux assay: reversal of Ro 25-6981-mediated suppression of the Ca2+ response to co-agonist (glutamate/glycine); further: test concentration or dose not given here
Format: cell-based
Conditions: reversal of the Ro 25-6981 suppression of the Ca2+ response to co-agonist (glutamate/glycine)

Chain of HEK293 cells with stable expression of the GRIN1 gene and tetracycline-inducible expression of the GRIN2B gene (NMDA receptor, NR2B) (Q13224 27-1484, other chains not shown): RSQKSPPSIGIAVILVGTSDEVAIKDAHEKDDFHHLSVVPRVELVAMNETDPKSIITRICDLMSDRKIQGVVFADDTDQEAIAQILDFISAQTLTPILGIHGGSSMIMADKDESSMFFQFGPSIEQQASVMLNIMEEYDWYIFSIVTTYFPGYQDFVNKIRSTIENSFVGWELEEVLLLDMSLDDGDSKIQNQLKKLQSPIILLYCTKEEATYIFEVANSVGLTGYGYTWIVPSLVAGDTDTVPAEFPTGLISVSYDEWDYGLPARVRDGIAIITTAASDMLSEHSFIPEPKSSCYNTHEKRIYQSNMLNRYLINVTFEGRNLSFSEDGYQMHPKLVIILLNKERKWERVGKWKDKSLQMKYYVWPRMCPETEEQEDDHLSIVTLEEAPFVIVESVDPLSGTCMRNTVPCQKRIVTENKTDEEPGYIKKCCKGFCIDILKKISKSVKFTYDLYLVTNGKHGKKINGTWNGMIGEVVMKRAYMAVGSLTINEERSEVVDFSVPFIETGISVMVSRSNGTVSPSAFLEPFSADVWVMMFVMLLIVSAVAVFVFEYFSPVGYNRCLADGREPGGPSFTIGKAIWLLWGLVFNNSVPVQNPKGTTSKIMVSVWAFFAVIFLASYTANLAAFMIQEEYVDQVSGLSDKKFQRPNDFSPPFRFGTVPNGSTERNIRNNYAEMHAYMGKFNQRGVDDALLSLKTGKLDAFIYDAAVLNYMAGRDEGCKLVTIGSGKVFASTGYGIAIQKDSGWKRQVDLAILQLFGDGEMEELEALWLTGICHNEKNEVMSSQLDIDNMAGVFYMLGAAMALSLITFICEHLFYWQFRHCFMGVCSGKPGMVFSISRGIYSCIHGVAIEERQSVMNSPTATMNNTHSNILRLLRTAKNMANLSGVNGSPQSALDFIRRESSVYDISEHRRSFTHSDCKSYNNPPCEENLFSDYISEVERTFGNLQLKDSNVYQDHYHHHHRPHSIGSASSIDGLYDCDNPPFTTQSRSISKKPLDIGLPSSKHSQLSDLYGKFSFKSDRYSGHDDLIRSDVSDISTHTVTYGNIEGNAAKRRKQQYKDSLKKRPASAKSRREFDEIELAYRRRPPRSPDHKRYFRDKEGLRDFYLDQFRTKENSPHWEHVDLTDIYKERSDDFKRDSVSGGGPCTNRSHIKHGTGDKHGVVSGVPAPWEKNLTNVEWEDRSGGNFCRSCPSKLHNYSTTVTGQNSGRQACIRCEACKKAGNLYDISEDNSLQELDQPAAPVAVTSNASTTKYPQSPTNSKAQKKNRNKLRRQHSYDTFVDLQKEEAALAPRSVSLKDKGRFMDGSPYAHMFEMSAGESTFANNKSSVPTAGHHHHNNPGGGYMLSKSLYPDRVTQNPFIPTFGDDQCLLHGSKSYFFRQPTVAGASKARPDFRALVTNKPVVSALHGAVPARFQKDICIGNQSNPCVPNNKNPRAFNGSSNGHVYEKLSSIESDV

SMILES	Response Recovered (%)
Cn1cc(-c2ccc(Cl)c(C(F)(F)F)c2)c2c(=O)n(CC(=O)N3CC(F)(F)C3)cnc21 [Example 168, 5-(4-chloro-3-(trifluoromethyl)phenyl)-3-(2-(3,3-difluoroazetidin-1-yl)-2-oxoethyl)-7-methyl-3H-pyrrolo[2,3-d]pyrimidin-4(7H)-one]	55
O=C(Cn1ncc2scc(-c3ccc(Cl)c(F)c3)c2c1=O)N1CCC(F)C1 (stereo not shown) [Example 342, 3-(4-chloro-3-fluorophenyl)-5-(2-(3-fluoropyrrolidin-1-yl)-2-oxoethyl)thieno[2,3-d]pyridazin-4(5H)-one]	4
O=C(Cn1cnc2[nH]cc(-c3ccc(F)c(Cl)c3)c2c1=O)N1CCC(F)C1 (stereo not shown) [Example 178, 5-(3-chloro-4-fluorophenyl)-3-(2-(3-fluoropyrrolidin-1-yl)-2-oxoethyl)-3H-pyrrolo[2,3-d]pyrimidin-4(7H)-one]	54
O=C(Cn1cc(C2CC2)c2scc(-c3ccc(Cl)c(C(F)(F)F)c3)c2c1=O)N1CCCC1 [Example 101, 3-(4-chloro-3-(trifluoromethyl)phenyl)-7-cyclopropyl-5-(2-oxo-2-(pyrrolidin-1-yl)ethyl)thieno[3,2-c]pyridin-4(5H)-one]	29
O=C(Cn1ccc2c(c(-c3ccc(F)c(Cl)c3)cn2CCF)c1=O)N1CCC(F)C1 (stereo not shown) [Example 253, 3-(3-chloro-4-fluorophenyl)-1-(2-fluoroethyl)-5-(2-(3-fluorpyrrolidin-1-yl)-2-oxoethyl)-1H-pyrrolo[3,2-c]pyridin-4(5H)-one]	66
O=C(Cn1ccn2ncc(-c3ccc(F)c(C(F)(F)F)c3)c2c1=O)N1CC(F)(F)C1 [Example 324, 5-(2-(3,3-difluoroazetidin-1-yl)-2-oxoethyl)-3-(4-fluoro-3-(trifluoromethyl)phenyl)pyrazolo[1,5-a]pyrazin-4(5H)-one]	51
CC(C)(O)Cn1cc(-c2ccc(F)c(C(F)(F)F)c2)c2c(=O)n(CC(=O)N3CCC(F)C3)ccc21 (stereo not shown) [Example 257, 3-(4-fluoro-3-(trifluoromethyl)phenyl)-5-(2-(3-fluoropyrrolidin-1-yl)-2-oxoethyl)-1-(2-hydroxy-2-methylpropyl)-1H-pyrrolo[3,2-c]pyridin-4(5H)-one]	20
Cc1cc(-c2csc3ccn(CC(=O)N4CC(C)(F)C4)c(=O)c23)cnc1Cl [Example 84, 3-(6-chloro-5-methylpyridin-3-yl)-5-(2-(3-fluoro-3-methylazetidin-1-yl)-2-oxoethyl)thieno[3,2-c]pyridin-4(5H)-one]	39
O=C(Cn1cc(-c2ccccc2)c2scc(-c3ccc(Cl)c(C(F)(F)F)c3)c2c1=O)N1CCCC1 [Example 102, 3-(4-chloro-3-(trifluoromethyl)phenyl)-5-(2-oxo-2-(pyrrolidin-1-yl)ethyl)-7-phenylthieno[3,2-c]pyridin-4(5H)-one]	23
O=C(Cn1ccc2scc(-c3ccc(Cl)c(Cl)c3)c2c1=O)N1CC2C(C1)C2(F)F (stereo not shown) [Example 66, 3-(3,4-dichlorophenyl)-5-(2-(6,6-difluoro-3-azabicyclo[3.1.0]hex-an-3-yl)-2-oxoethyl)thieno[3,2-c]pyridin-4(5H)-one]	26
C[Si](C)(C)CCOCn1cc(-c2ccc(F)c(Cl)c2)c2c(=O)n(CC(=O)N3CC(F)(F)C3)ccc21 [Example 207, 3-(3-chloro-4-fluorophenyl)-5-(2-(3,3-difluoroazetidin-1-yl)-2-oxoethyl)-1-((2-(trimethylsilyl)ethoxy)methyl)-1H-pyrrolo[3,2-c]pyndin-4(5H)-one]	69
CC(C)(O)Cn1cc(-c2ccc(F)c(C(F)(F)F)c2)c2c(=O)n(CC(=O)N3CC(F)C(F)C3)ccc21 (stereo not shown) [Example 258, 5-(2-(3,4-difluoropyrrolidin-1-yl)-2-oxoethyl)-3-(4-fluoro-3-(trifluoromethyl)phenyl)-1-(2-hydroxy-2-methylpropyl)-1H-pyrrolo[3,2-c]pyridin-4(5H)-one]	13
O=C(Cn1ncc2scc(-c3ccc(F)c(Cl)c3)c2c1=O)N1CCC(F)C1 (stereo not shown) [Example 343, 3-(3-chloro-4-fluorophenyl)-5-(2-(3-fluoropyrrolidin-1-yl)-2-oxoethyl)theino[2,3-d]pyridazin-4(5H)-one]	15
O=C(Cn1cnc2onc(-c3ccc(Cl)cc3)c2c1=O)N1CC(F)(F)C1 [Example 385, 3-(4-chlorophenyl)-5-(2-(3,3-difluoroazetidin-1-yl)-2-oxoethyl)isoxazolo[5,4-d]pyrimidin-4(5H)-one]	4
O=C(Cn1ccc2c(c(-c3ccc(F)c(C(F)(F)F)c3)cn2-c2ccccn2)c1=O)N1CCC(F)C1 (stereo not shown) [Example 225, 3-(4-fluoro-3-(trifluoromethyl)phenyl)-5-(2-(3-fluoropyrrolidin-1-yl)-2-oxoethyl)-1-(pyridin-2-yl)-1H-pyrrolo[3,2-c]pyridin-4(5H)-one]	83
O=C(Cn1ccn2c(C3CC3)nc(-c3ccc(Cl)c(Cl)c3)c2c1=O)N1CC(F)(CF)C1 [Example 440, 3-cyclopropyl-1-(3,4-dichlorophenyl)-7-(2-(3-fluoro-3-(fluoromethyl)azetidin-1-yl)-2-oxoethyl)imidazo[1,5-a]pyrazin-8(7H)-one]	110
O=C(Cn1ccc2[nH]cc(-c3ccc(Cl)c(Cl)c3)c2c1=O)N1CCCC1 [Example 217, 3-(3,4-dichlorophenyl)-5-(2-oxo-2-(pyrrolidin-1-yl)ethyl)-1H-pyrrolo[3,2-c]pyridin-4(5H)-one]	70
CC1(F)CN(C(=O)Cn2ccc3c(c(-c4cnc(Cl)c(Cl)c4)cn3C3CC3)c2=O)C1 [Example 289, 1-cyclopropyl-3-(5,6-dichloropyridin-3-yl)-5-(2-(3-fluoro-3-methylazetidin-1-yl)-2-oxoethyl)-1H-pyrrolo[3,2-c]pyridin-4(5H)-one]	120
O=C(Cn1ccc2ncc(-c3ccc(F)c(C(F)(F)F)c3)n2c1=O)N1CCC(F)C1 (stereo not shown) [Example 448, 3-(4-fluoro-3-(trifluoromethyl)phenyl)-6-(2-(3-fluoropyrrolidin-1-yl)-2-oxoethyl)imidazo[1,2-c]pyrimidin-5(6H)-one]	14
CC(C)(O)c1cn(CC(=O)N2CCC(F)C2)c(=O)c2c(-c3ccc(F)c(C(F)(F)F)c3)csc12 (stereo not shown) [Example 133, 3-(4-fluoro-3-(trifluoromethyl)phenyl)-5-(2-(3-fluoropyrrolidin-1-yl)-2-oxoethyl)-7-(2-hydroxypropan-2-yl)thieno[3,2-c]pyridin-4(5H)-one]	9.9
Cc1cn(CC(=O)N2CCC(F)C2)c(=O)c2c(-c3ccc(F)c(Cl)c3)cc(Br)n12 (stereo not shown) [Example 415, 6-bromo-8-(3-chloro-4-fluorophenyl)-2-(2-(3-fluoropyrrolidin-1-yl)-2-oxoethyl)-4-methylpyrrolo[1,2-a]pyrazin-1(2H)-one]	52
Cc1cn(CC(=O)N2CCC(F)C2)c(=O)c2c(-c3ccc(F)c(C(F)(F)F)c3)cc(Br)n12 (stereo not shown) [Example 412, 6-bromo-8-(4-fluoro-3-(trifluoromethyl)phenyl)-2-(2-(3-fluoropyrrolidin-1-yl)-2-oxoethyl)-4-methylpyrrolo[1,2-a]pyrazin-1(2H)-one]	38
